Experimental findings from US20060002881A1, “Perfluorocarbon-soluble compounds” (priority 2004, published 2006) are described below.

Common to all, as to format: physicochemical
Data set [1] is described as follows: Solvent solubility of perfluoroalkanamides. The arrangement: key: S: complete dissolve in the solvent at room temperature; P: precipitation in the solvent. The conditions noted are these: 3% w/w; for Solubility in Acetone: room temperature. An excerpt:
It is clear from the observation that perfluoroalkanamides of the present invention can easily form micelles in acetone at room temperature. With shorter perfluoroalkyl group (i.e., C6F13—), perfluoroalkanamide can dissolve into all tested hydrocarbon solvents at room temperature, but precipitate in fluorocarbon (i.e., CF-76).

The nature of data set [2]: Ternary phase diagram / phase behavior of PFC/water/fluorosurfactant (PFC microemulsion formation). An excerpt: The formation of PFC-in-water emulsion requires high energy to disperse PFC as surfactant-stabilized microdroplets in aqueous phase; while, for thermodynamic stable PFC microemulsion, two immiscible liquid phases with the aid of a pertinent fluorosurfactant can turn into an optically isotropic solution simply by gentle mixing. Given in FIG. 2, different phase behaviors were created by titering various concentrations of C7F15CONH-MPEG350 surfactant dissolved in water solution with different amounts of PFOB liquid. Since the specific density of PFOB is 1.94 which is larger than the water density, the milky PFOB-in-water emulsion settled down on the bottom of the vial (FIG. 2A). […]
Aqueous solutions containing given quantities of fluorosurfactant were progressively added with PFC and placed in a thermostat water bath set at 25° C. After each addition, the aspect of the solution was recorded, along with number, nature, and approximate volumes of phases. […] Ternary phase diagrams were then plotted to distinguish the boundaries between different phases and used to quantitate the proportion of three components (water, fluorosurfactant, and PFC) forming PFC microemulsion.
The ternary phase diagram given in FIG. 3 was determined by the weight fraction of water, PFOB, and RF-MPEG350. The PFOB microemulsion domain was determined to be the area under the test points symbolized as ▪. […]

A short description of data set [3]: Solubility of C7F15-MPEG in PFC. As to conditions: decreases with increment of MW of MPEG.

As for `CCCCCCCCCCCCNC(=O)C(F)(F)C(F)(F)C(F)(F)C(F)(F)C(F)(F)C(F)(F)F` [C6F13CONHC12H25], the “Solubility in CF-76 (3 M)” value in data set [1] (> 40° C.) was 40 °C → S. In data set [1] (@ RT), the “Solubility in CF-76 (3 M)” value was “@ RT → P >”, the “Solubility in Ethanol” value is given as “S” and the “Solubility in Hexane” value was “S”. Also, the “Solubility in Acetone” value in data set [1] is listed as “S”.

Regarding `CCCCCCCCCCCCNC(=O)C(F)(F)C(F)(F)C(F)(F)C(F)(F)C(F)(F)C(F)(F)C(F)(F)F` [C7F15CONHC12H25], the “Solubility in Hexane” value in data set [1] (> 30° C.) stood at 30 °C → S. Besides, in data set [1] (> 40° C.), the “Solubility in CF-76 (3 M)” value stood at 40 °C → S and the “Solubility in Ethanol” value stood at 40 °C → S. Besides, in data set [1] (@ RT), the “Solubility in CF-76 (3 M)” value is “@ RT → P >”, the “Solubility in Ethanol” value is listed as “@ RT → P >” and the “Solubility in Hexane” value is listed as “@ RT → P >”. Also, the “Solubility in Acetone” value in data set [1] is on record as “S”.

As for `CCCCCCCCNC(=O)C(F)(F)C(F)(F)C(F)(F)C(F)(F)C(F)(F)C(F)(F)C(F)(F)C(F)(F)F` [C8F17CONHC8H17], in data set [1] (@ RT), the “Solubility in CF-76 (3 M)” value is “S”, the “Solubility in Ethanol” value is on record as “S” and the “Solubility in Hexane” value was “S”. Besides, the “Solubility in Acetone” value in data set [1] is “S”.

Turning to `CCCCCCCCCCCCNC(=O)C(F)(F)C(F)(F)C(F)(F)C(F)(F)C(F)(F)C(F)(F)C(F)(F)C(F)(F)F` [C8F17CONHC12H25], the “Solubility in Hexane” value in data set [1] (> 30° C.) turned out to be 30 °C → S. In data set [1] (> 40° C.), the “Solubility in CF-76 (3 M)” value is 40 °C → S and the “Solubility in Ethanol” value worked out at 40 °C → S. In data set [1] (@ RT), the “Solubility in CF-76 (3 M)” value was “@ RT → P >”, the “Solubility in Ethanol” value is recorded as “@ RT → P >” and the “Solubility in Hexane” value is “@ RT → P >”. Also, the “Solubility in Acetone” value in data set [1] was “S”.

Consider C7F15CONH-PEG350-OCH3, for which, in data set [2] (PFOB and ZT85, 25° C.), the “Size of PFC microemulsion domain in ternary phase diagram” value was “largest PFC microemulsion region”. Further, the “Formation of transparent PFC microemulsion” value in data set [2] (PFOB or ZT85 / water / fluorosurfactant, 25° C., no co-surfactant) is recorded as “PFC-in-water microemulsion”. Besides, the “Solubility in PFOB or ZT85 (rank order)” value in data set [3] was “C7F15-MPEG350>C7F15-MPEG550>C7F15-MPEG750”.

As to C7F15CONH-PEG550-OCH3, the “Solubility in PFOB or ZT85 (rank order)” value in data set [3] is given as “C7F15-MPEG350>C7F15-MPEG550>C7F15-MPEG750”.

On to C7F15CONH-PEG750-OCH3, for which, in data set [3], the “Solubility in PFOB or ZT85 (rank order)” value is “C7F15-MPEG350>C7F15-MPEG550>C7F15-MPEG750”.
